Like-named read-outs stand apart in the source and are kept apart here.
Legend:
G-361 melanoma = test: MTT cytotoxicity, G-361 melanoma; type: cell-based, human; conditions: for cytotoxic to melanoma cells (MTT test): G-361, concentration range used; for IC50: MTT test, 24 h treatment, G-361 melanoma
Procedure: (§1) Biological studies were performed on human malignant melanoma G-361 (ATCC CRL-1424) cell lines and human fibroblast BJ (ATCC® CRL-2522™) cell lines purchased from the American Type Culture Collection (ATCC, Manassas, VA USA). The G-361 cell lines were maintained in McCoy’s medium (Corning, NY, USA), and the fibroblast BJ cell line was cultured in EMEM (Corning, NY, USA). All media were supplemented with 10% heat-inactivated fetal bovine serum (PAN-Biotech, Aidenbach, Germany), 100 U/mL penicillin, 100 μg/mL streptomycin and 0.25 μg/mL amphotericin B (Sigma-Aldrich, St. Louis, MO, USA). Cultures were maintained at 37 °C in a humidified atmosphere of 95% air and 5% CO2. The experiments were performed using cells from passage 5 to 10.
(§2) The cytotoxicity of the new compounds was evaluated against both the G-361 and BJ cell lines. Cells were seeded into 96-well plates at a density of 3 × 10^4 cells/well and 2 × 10^4 cells/well. After 24 h of incubation, when 70–80% confluence was reached, the culture medium was removed and replaced with the fresh one containing the tested compounds in the concentration range of 10, 25, 50, 75, 100, 125 and 250 μM. Cells were cultured at 37 °C in the presence of 5% air with CO2 for another 24 h. The cytotoxicity of the test compounds was evaluated by the MTT colorimetric assay, based on the ability of live cells to convert yellow soluble tetrazolium salts (3-[4,5-dimethylthiazol-2-yl]- 2,5-diphenyltetrazolium bromide, MTT) to purple insoluble formazan by cellular dehydrogenase. After 24 h of incubation with solutions of the test compounds, 4 mg/mL MTT solution (Thermo Scientific, Waltham, MA, USA) was added to the cell cultures and incubation was continued for 4 h at 37 °C. The MTT medium was then removed, and the resulting crystals were dissolved in 200 µL of DMSO. The solution was measured for absorbance at 570 nm using a Power Wave xs spectrophotometric plate reader, BioTek Instruments (Winooski, VT, USA). The experiment was performed three times with three replicates for each concentration. IC50 values were determined using the AAT Bioquest IC50 calculator.

[1] = tested on: BJ normal fibroblast cell line; test: MTT cytotoxicity, BJ normal fibroblasts; type: cell-based, human; conditions: for toxic to normal fibroblasts (MTT test): BJ, concentration range used; for IC50: MTT test
Procedure: as §1, §2

melanoma line G-361 = test: Annexin V / propidium iodide apoptosis assay (image cytometry); type: cell-based, human; conditions: G-361, 24 h, compound at IC50 concentration, representative histogram
Procedure: Cell apoptosis assays were performed using an NC 3000 system (Chemometec., Lillerød, Denmark) according to the manufacturer’s protocol for the Annexin V Assay. The G-361 cells were seeded in 6-well plates at a density of 2 × 10^5 cells/mL and the tested compounds with concentration IC50 were added when 70–80% of confluence was achieved. After 24 h incubation, cells were suspended in 100 μL of Annexin V binding buffer with 2 µL of Annexin V-CF488A conjugate (FITC-labeled annexin V) and 2 µL of Solution 15 (Hoechst33342 stains). In the next step, the cells were incubated for 15 min at 37 °C and subsequently centrifuged at 400× g for 5 min. Following the removal of the supernatant, the cell pellets were resuspended in 300 µL of Annexin V binding buffer and centrifuged twice under the conditions described above. Eventually, the cell pellets were resuspended in 100 µL of Annexin V binding buffer and 2 µL of Solution 16 (propidium iodide, which stains late apoptotic and necrotic cells) was added. The prepared samples were analyzed immediately using 2-chamber NC-Slides A2™ (Chemometec., Lillerød, Denmark) and the Annexin V Assay protocol. The obtained scatterplots were used to demarcate the percentage of healthy cells and early and late apoptotic cells. The experiment was performed three times with three replicates.

catalase (CAT) = test: qRT-PCR relative mRNA expression, CAT; type: cell-based, human; conditions: for CAT expression change: G-361; for Relative mRNA expression level CAT (RQ): G-361, 48 h incubation, RQ = 2^-ΔΔCt, mean ± SD, control 1.016
Procedure: […] cell line was seeded into 6-well plates in the concentration of 4 × 10^5 cells/well. Thiosemicarbazide derivatives were added when 70–80% of confluence was achieved. After 48 h of incubation, 1 mL of TRIzol™ Reagent (Invitrogen, Carlsbad, CA, USA) was added to lyse the cells. Lysates were centrifuged for 5 min at 12,000× g at 4 °C, and clear supernatants were processed according to the manufacturer’s protocol. Then, reverse transcription was performed using NG dART RT-PCR kit (EURx, Gdańsk, Poland) and a Mastercycler gradient thermocycler (Eppendorf, Hamburg, Germany). Thermal profile of the reaction: 10 min at 25 °C, then 50 min at 50 °C, and 5 min at 85 °C. mRNA levels of the genes DHODH, 18SRNA, and BACT were assessed using TaqMan Fast Advanced Master Mix (ThermoFisher, Waltham, MA, USA). mRNA levels of the following genes: CAT, SOD2,18SRNA TBP were assessed using PowerUp SYBR Green Master Mix (ThermoFisher, Waltham, MA, USA) in a 7500 Fast Real-Time PCR System (ThermoFisher, Waltham, MA, USA). Thermal profile of the reactions performed: 20 s at 95 °C, followed by 40 cycles of 3 s at 95 °C and 30 s at 60 °C. The reaction was carried out in triplicates. Relative expression of the tested genes was determined by qRT-PCR and the ΔΔCt method. The statistical analysis was performed with RQ values (relative quantification, RQ = 2^−∆ΔCt).

RP-HPLC lipophilicity = type: physicochemical; conditions: for logkW (chromatographic lipophilicity parameter): Kinetex C18, methanol-water 55-80%, extrapolated to 0% methanol; for -S HPLC (slope of linear equation): Table S3
Procedure: RP-HPLC analysis was performed using a Merck-Hitachi LaChrom Elite System (Merck, Darmstadt, Germany) with diode array detector L-2455, thermostat L-2300, pump L-2130 and autosampler L-2200 with a Kinetex C18 (5µm; 150 × 4,6mm) chromatographic column (Phenomenex, Torrance, USA) as the stationary phase. The mobile phase consisted of methanol (Merck, Darmstadt, Germany) and water (double-distilled), which was degassed by use of the built-in membrane degasser. Subsequently, 5 μL methanolic solution (0.1%; m/v) of the selected samples was applied to the chromatographic column by use of a Hitachi L-2200 autosampler (LaChrom Elite, Hitachi-Merck, Darmstadt, Germany). The analysis was performed with a flow rate of 0.7 mL min^−1 in isocratic mode using various concentrations of organic modifier (methanol) in binary polar mobile phases; percentages of methanol in water were 55–80% (%, v/v) and changed by 5% per step. Chromatograms were detected at 254 nm and the temperature of the column was 25 °C. All experiments were repeated in triplicate and the final results were taken to be the arithmetic means. Dead time was measured using uracil (Calbiochem. Merck, Darmstadt, Germany).

[2] = 24 h treatment, BJ normal fibroblasts, concentration range 10-250 µM, read-out: IC50 BJ
[3] = BJ fibroblasts, further analysis, value in parentheses after >250, read-out: IC50 BJ (value in parentheses)

SMILES	cytotoxic to melanoma cells (MTT test) (G-361 melanoma)	IC50 (G-361 melanoma; Homo sapiens)	toxic to normal fibroblasts (MTT test) [1]	IC50 ([1]; Homo sapiens, Fibroblast, 24 h treatment, BJ normal fibroblasts, concentration range 10-250 µM, read-out: IC50 BJ)	IC50 ([1]; Homo sapiens, Fibroblast, BJ fibroblasts, further analysis, value in parentheses after >250, read-out: IC50 BJ (value in parentheses))	Q1ll, normal cells (melanoma line G-361)	Q1lr, early apoptotic cells (melanoma line G-361)	Q1ul, necrotic cells (melanoma line G-361)	Q1ur, late apoptotic cells (melanoma line G-361)	CAT expression change (catalase (CAT))	Relative mRNA expression level CAT (RQ) (catalase (CAT))	logkW (chromatographic lipophilicity parameter) (RP-HPLC lipophilicity)	-S HPLC (slope of linear equation) (RP-HPLC lipophilicity)	IC50 (G-361 melanoma)	IC50 [1, 2]	IC50 [1, 3]
CSc1ccc(NC(=S)NNC(=O)COc2ccc(Cl)cc2Cl)cc1 [PK2, 1-(2,4-dichlorophenoxy)acetyl-4-(4-metylothiophenyl)thiosemicarbazide]	cytotoxic	108 ± 6 µM	not toxic	> 250 µM	828 µM	52%	7%	2%	39%	reduction	0.107 ± 0.013	4.7804	6.3581			
O=C(COc1ccc(Cl)cc1Cl)NNC(=S)Nc1ccccc1I [PK6, 1-(2,4-dichlorophenoxy)acetyl-4-(2-iodophenyl)thiosemicarbazide]	cytotoxic		not toxic			30%	17%	4%	49%	increased	2.691 ± 0.127	4.1439	5.4574	112 ± 4.76 µM	> 250 µM	631 µM
O=C(COc1ccc(Cl)cc1Cl)NNC(=S)Nc1cccc2ccccc12 [PK9, 1-(2,4-dichlorophenoxy)acetyl-4-(1-naphtyl)thiosemicarbazide]	cytotoxic		not toxic			32%	28%	1%	39%	reduction	0.354 ± 0.022	4.6425	6.1619	113 ± 4 µM	> 250 µM	894 µM

Reference: paper PMC8961551, “Potential Anticancer Agents against Melanoma Cells Based on an As-Synthesized Thiosemicarbazide Derivative” (Biomolecules, 2022)
